Results on 15 compounds are retold here after US11643396B2, “BRD4-kinase inhibitors as cancer therapeutics” (H. LEE MOFFITT CANCER CENTER AND RESEARCH INSTITUTE, INC., priority 2015, dated 2023).

One data set concerns c-Myc. The note with it: literature; cited from earlier work.
In a further data set the target is BRD4 (Homo sapiens (Human), UniProt O60885). The data set can be described thus: Differential Scanning Fluorimetry (DSF), stability of BRD4 upon ligand binding. The note with it: for DSF ΔTm / IC50: Table 1; for IC50: estimated from DSF; for DSF: BRD4 ΔTm: 100 μM protein, 4 μM compound and 2% DMSO, Table 4.
The test system of a further data set is MM.1S cells. The experiment in a line: Cellular IC50 (cell survival, MTT), MM.1S. It is filed as cell-based. The text has this:
Increased anti-proliferative effects are correlated with an early, strong reduction of both pSTAT2 and c-Myc levels. The inhibitors highlighted are the most promising equipotent dual BET-JAK2 inhibitors of this series.

The target in the next data set is BRD4-2 (Homo sapiens (Human), UniProt O60885). The experiment in a line: Alpha Screen (Reaction Biology). It is filed as binding. The note with it: Reaction Biology data; value in parentheses.
A further data set concerns the target BRD4-1 (Homo sapiens (Human), UniProt O60885). The data set can be described thus: Alpha Screen (Reaction Biology). It is filed as binding. The note with it: Reaction Biology data.
The next data set has as its system HEK293. The data set can be described thus: Cellular IC50, HEK293. The data set is classed as cell-based. The note with it: Homo sapiens.
For another data set, the system named is Saos-2. The experiment in a line: Cellular IC50, Saos-2. It is filed as cell-based. The note with it: Homo sapiens.
In a further data set the target is JAK2 (Homo sapiens (Human), UniProt O60674). The data set can be described thus: HotSpot Kinase assay (Reaction Biology). The data set is classed as biochemical. The note with it: Reaction Biology data.
Another data set has as its system UKE-1. The experiment in a line: Cellular IC50, UKE-1. The data set is classed as cell-based. The note with it: UKE1.
Data set [1] deals with MV4-11 AML cells. The experiment in a line: Cellular IC50, MV-4-11. The note with it: Homo sapiens. The data set is classed as cell-based. As to the method:
Cellular activity of promising compounds is assessed using MM.1S and MV4-11 AML cells using c-Myc levels as biomarker (6-12 hr treatment) and antiproliferative activity (48-72 hr treatment) as described (Ciceri et al., Dual kinase-bromodomain inhibitors for rationally designed polypharmacology. Nat Chem Biol 2014).

The test system of data set [2] is MV4-11 AML cells. The note with it: literature; read-out: IC50, inhibition of proliferation of MV4-11 AML cells; cited from earlier work.
The target of the next data set is BRDT-1 (Homo sapiens (Human), UniProt Q58F21). The data set can be described thus: Alpha Screen (Reaction Biology). It is filed as binding. The note with it: Reaction Biology data.
Another data set in a line: Solubility in PBS buffer. It is filed as physicochemical.
Where [3] appears, read: Homo sapiens, MM1.S, read-out: Cellular IC50 MM.1S.

Each structure is given as a SMILES string. “And” between values parts separate entries of the source, which are not always exact repeats. Equal entries are not always repeated. Where two headings read alike, the source gives them in different places. A value given as a limit tells only on which side of the number the result lay.

Sequence of JAK2 (O60674 whole entry): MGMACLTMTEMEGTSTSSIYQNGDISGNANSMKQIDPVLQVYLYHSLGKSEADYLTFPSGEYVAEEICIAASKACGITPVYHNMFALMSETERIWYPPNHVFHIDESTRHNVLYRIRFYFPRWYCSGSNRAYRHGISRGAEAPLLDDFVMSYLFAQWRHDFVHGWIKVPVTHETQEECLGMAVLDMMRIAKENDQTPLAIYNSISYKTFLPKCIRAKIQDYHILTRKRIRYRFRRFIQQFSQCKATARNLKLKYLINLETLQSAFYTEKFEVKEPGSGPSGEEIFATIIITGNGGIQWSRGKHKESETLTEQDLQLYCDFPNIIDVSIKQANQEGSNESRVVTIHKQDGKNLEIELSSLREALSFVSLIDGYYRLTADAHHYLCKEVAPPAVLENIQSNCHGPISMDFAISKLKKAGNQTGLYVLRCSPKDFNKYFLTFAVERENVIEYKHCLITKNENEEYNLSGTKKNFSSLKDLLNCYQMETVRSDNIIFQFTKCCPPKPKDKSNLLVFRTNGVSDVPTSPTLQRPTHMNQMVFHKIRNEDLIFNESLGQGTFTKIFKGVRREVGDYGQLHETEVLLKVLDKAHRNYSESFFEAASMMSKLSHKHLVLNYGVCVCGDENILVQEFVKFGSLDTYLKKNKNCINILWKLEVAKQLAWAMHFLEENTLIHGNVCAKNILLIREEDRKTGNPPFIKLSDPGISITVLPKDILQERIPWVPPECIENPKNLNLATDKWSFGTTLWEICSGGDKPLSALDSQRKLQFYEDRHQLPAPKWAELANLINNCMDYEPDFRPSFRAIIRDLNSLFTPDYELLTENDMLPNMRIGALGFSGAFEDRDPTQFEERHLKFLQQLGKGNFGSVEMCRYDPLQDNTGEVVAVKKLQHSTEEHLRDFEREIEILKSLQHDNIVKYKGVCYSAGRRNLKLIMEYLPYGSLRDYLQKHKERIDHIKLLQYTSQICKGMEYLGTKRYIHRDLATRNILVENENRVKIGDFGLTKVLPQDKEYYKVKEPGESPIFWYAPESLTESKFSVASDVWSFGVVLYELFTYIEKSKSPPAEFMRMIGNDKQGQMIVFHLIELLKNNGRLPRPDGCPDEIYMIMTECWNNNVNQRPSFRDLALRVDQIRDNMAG

Take `Cc1cnc(Nc2ccc(N3CCN(C)CC3)cc2)nc1Nc1cccc(S(=O)(=O)NC(C)(C)C)c1` [TG101209, reference compound]: in the data set with c-Myc, the “downregulation of c-Myc in MM.1S cells” value was “strong downregulation of c-Myc”. Besides, the “DSF ΔTm” value at BRD4 was 6.83 ± 0.129 °C and 7.55 ± 0.154 °C.
In the case of `Cc1cnc(Nc2ccc(N3CCN(C)CC3)cc2)nc1Nc1ccc(Cl)c(NS(=O)(=O)C(C)(C)C)c1` [drawing 232], the IC50 in the data set on MM.1S cells (setting [3]) came to 0.142 µM; at BRD4-2, 0.0273 µM; on BRD4-1, 0.025 µM.
With `Cc1nc(Nc2ccc(N3CCN(C)CC3)cc2)nc(Nc2cccc(S(=O)(=O)NC(C)C)c2)c1C`, the IC50 with HEK293 worked out at 120 µM. Also, on BRD4, the “DSF ΔTm” value is 5.3 ± 0.064 °C and the IC50 was 0.37 µM.
Take `Cc1cnc(Nc2ccc(N3CCN(C)CC3)c(F)c2)nc1Nc1ccc(Cl)c(NS(=O)(=O)C(C)(C)C)c1` [drawing 230]: the IC50 was 0.066 µM in the data set on MM.1S cells (setting [3]); 0.32 µM with Saos-2; 0.00336 µM against JAK2; 0.294 µM in the data set with UKE-1; 0.0532 µM in the data set on MV4-11 AML cells [1]. Also, the “DSF: BRD4 ΔTm” value at BRD4 was 12.6 ± 0.06 °C.
As for `CC[C@@H]1C(=O)N(C)c2cnc(Nc3ccc(C(=O)NC4CCN(C)CC4)cc3OC)nc2N1C1CCCC1` [BI2536], the “downregulation of c-Myc in MM.1S cells” value in the data set on c-Myc is on record as “strong downregulation of c-Myc”.
Consider `CCOC(=O)c1cnc(Nc2ccc(N3CCN(C)CC3)cc2)nc1Nc1cccc(S(=O)(=O)NC(C)(C)C)c1`, for which the IC50 at BRD4 is above 20 µM.
`Cc1cnc(Nc2ccc(N3CCN(C)CC3)c(F)c2)nc1Nc1cccc(NS(=O)(=O)C(C)(C)C)c1` [drawing 167]: in the data set with MM.1S cells (read-out: MM.1S IC50), the IC50 came to 0.146 µM. Moreover, at BRD4, the “DSF ΔTm” value was determined as 11.2 ± 0.15 °C.
For the compound `Cc1cnc(Nc2ccc(OCCN3CCCC3)cc2)nc1Nc1cccc(S(=O)(=O)NC(C)(C)C)c1` [TG101348], in the data set with MV4-11 AML cells [2], the IC50 was 0.079 µM. The “downregulation of c-Myc in MM.1S cells” value in the data set with c-Myc is “strong downregulation of c-Myc”.
As for `Cc1cnc(Nc2ccc(C(=O)NC3CCN(C)CC3)c(F)c2)nc1Nc1ccc(Cl)c(NS(=O)(=O)C(C)(C)C)c1`, the IC50 in the data set with UKE-1 was 0.225 µM; on BRD4-1, 0.00955 µM; with MV4-11 AML cells [1] it was 0.0383 µM; on BRDT-1 it was 0.0225 µM.
As to `Cc1cnc(Nc2ccc(N3CCN(C)CC3)cc2)nc1Nc1cccc(NS(=O)(=O)C(C)(C)C)c1`, the values for the IC50 in the data set with MM.1S cells (setting [3]), at BRD4-2 and in the data set with MV4-11 AML cells [1] were 0.399 µM, 0.0236 µM and 0.0567 µM, respectively.
Take `Cc1cnc(Nc2ccc(N3CCN(C)CC3)cc2)nc1Nc1ccc(Cl)c(NS(=O)(=O)C(C)(C)C)c1` [drawing 146]: in the data set on MM.1S cells (read-out: MM.1S IC50), the IC50 was found to be 0.142 µM.
Regarding `Cc1cnc(Nc2ccc(N3CCN(C)CC3)cc2)nc1Nc1ccc(Cl)c(NS(=O)(=O)C(C)(C)C)c1` [SG3-014B2.MSA], the Solubility in the data set “Solubility in PBS buffer” (in 1 mL PBS buffer (15% HPCD)) is above 14.4 mg/mL; in the data set “Solubility in PBS buffer” (in 1 mL PBS buffer (~9.3% DMSO)), 0.416 mg.
Consider `Cc1cnc(Nc2ccc(N3CCN(C)CC3)c(F)c2)nc1Nc1ccc(Cl)c(NS(=O)(=O)C(C)(C)C)c1` [drawing 168], for which the IC50 with MM.1S cells (read-out: MM.1S IC50) is 0.064 µM and 0.066 µM. Further, the “DSF ΔTm” value at BRD4 was determined as 12.6 ± 0.069 °C.
With `CCCN(C)c1ccc(Nc2nc3c(c(Nc4cccc(S(N)(=O)=O)c4)n2)COC3)cc1`, at BRD4, the “DSF ΔTm” value is 2.9 ± 0.084 °C and the IC50 is 2.3 µM.
`Cc1cnc(Nc2ccc(N3CCN(C)CC3)c(F)c2)nc1Nc1cccc(NS(=O)(=O)C(C)(C)C)c1` [drawing 231]: the IC50 came out at 0.146 µM in the data set on MM.1S cells (setting [3]), 0.133 µM in the data set with Saos-2, 0.2 µM in the data set with UKE-1 and 0.0268 µM in the data set with MV4-11 AML cells [1]. The “DSF: BRD4 ΔTm” value at BRD4 was determined as 11.2 ± 0.15 °C.
